From the supplement of paper PMC8882468
± gives the standard deviation of the averaged measurements.

What was measured:
Assay in all cases: CTG-3D luminescence at 96 h relative to day-0 seeding control (ratio to day 0); higher = more growth / less cytotoxicity; PDxO 3D drug screen, 96 h, CTG-3D normalised to day-0 seeding control.
[1] = test system: HCI-011.E2 (organoid from an ER-positive breast cancer xenograft)
[2] = test system: MDA-MB-231
[3] = test system: HCI-008 (organoid from a HER2-enriched breast cancer xenograft)
[4] = test system: HCI-015 (organoid from a triple-negative breast cancer xenograft)
[5] = test system: HCI-017.E2 (organoid from an ER-positive breast cancer xenograft)
[6] = test system: HCI-027 (organoid from a triple-negative breast cancer xenograft)
[7] = test system: HCI-005.E2 (organoid from a breast cancer xenograft with a HER2-positive history)

O=C(O)C1(C(=O)O)CCC1.[NH2-].[NH2-].[Pt+2] [carboplatin]
CTG-3D luminescence at 96 h
Details | 12.5 pM | 0.00025 µM | 0.005 µM | 0.1 µM | 1 µM | 10 µM | 100 µM | 625 fM
[1] | 1.65 ± 0.12 | 1.72 ± 0.4 | 1.54 ± 0.35 | 2.26 ± 0.84 | 1.71 ± 0.94 | 2.08 ± 0.84 | 1.71 ± 0.52 | 1.69 ± 0.26
[2] | 4.49 ± 1.4 | 4.27 ± 1.5 | 4.51 ± 1.6 | 4.46 ± 1.5 | 4.4 ± 1.5 | 4.16 ± 1.3 | 3.05 ± 0.73 | 4.47 ± 1.4
[5] | 1.88 ± 0.13 | 2.076 ± 0.0078 | 2.32 ± 0.15 | 2.4 ± 0.19 | 2.25 ± 0.091 | 2.08 ± 0.058 | 1.9 ± 0.16 | 1.97 ± 0.042
[7] | 1.69 ± 0.46 | 2.11 ± 0.47 | 1.73 ± 0.066 | 1.87 ± 0.55 | 1.51 ± 0.36 | 1.24 ± 0.26 | 0.225 ± 0.099 | 1.47 ± 0.15

CTG-3D luminescence at 96 h
Details | 12.5 pM | 0.00025 µM | 0.005 µM | 0.1 µM | 1 µM | 10 µM | 100 µM | 625 fM
[1], days in culture: 74 | 2.31 | 2.54 | 2.04 | 1.86 | 2.2 | 2.77 | 2.69 | 1.99
[3], days in culture: 228 | 1.58 ± 0.47 | 2.29 ± 0.44 | 1.79 ± 0.38 | 2.05 ± 0.096 | 1.57 ± 0.32 | 1.31 ± 0.16 | 0.0629 ± 0.15 | 1.63 ± 0.52
[3], days in culture: 244 | 1.2 | 1.8 | 1.7 | 2.09 | 1.78 | 1.89 | 0.158 | 1.98
[4], days in culture: 172 | 2.56 | 2.15 | 2.48 | 1.49 | 2.05 | 0.715 | 0.354 | 2.54
[4], days in culture: 191 | 2.21 | 1.24 | 1.47 | 1.04 | 1.4 | 0.766 | 0.228 | 1.15
[4], days in culture: 218 | 1.26 | 1.7 | 1.7 | 1.77 | 1.54 | 0.685 | 0.229 | 1.75
[5], days in culture: 85 | 2.99 | 2.47 | 2.94 | 2.35 | 2.71 | 2.18 | 2.37 | 2.62
[6], days in culture: 176 | 1.57 | 1.38 | 2.11 | 1.68 | 2.42 | 1.35 | 0.0917 | 1.72
[6], days in culture: 194 | 1.43 | 1.55 | 1.4 | 1.9 | 2.15 | 1.91 | 0.181 | 1.44
[6], days in culture: 201 | 2.1 | 1.98 | 2.09 | 2.08 | 2.19 | 1.53 | 0.145 | 1.71
